Active and inactive are the calls of the source. The rule behind the calls is not given here.
Key:
[1] = target: T1, NPC1-like intracellular cholesterol transporter 1 (Homo sapiens) (UniProt Q9UHC9); test: Binding affinity to NPC1L1 (unknown origin) at 6.25 to 100 uM by SPR analysis; conditions: dose 6.25-100 µM
T1 sequence (whole entry): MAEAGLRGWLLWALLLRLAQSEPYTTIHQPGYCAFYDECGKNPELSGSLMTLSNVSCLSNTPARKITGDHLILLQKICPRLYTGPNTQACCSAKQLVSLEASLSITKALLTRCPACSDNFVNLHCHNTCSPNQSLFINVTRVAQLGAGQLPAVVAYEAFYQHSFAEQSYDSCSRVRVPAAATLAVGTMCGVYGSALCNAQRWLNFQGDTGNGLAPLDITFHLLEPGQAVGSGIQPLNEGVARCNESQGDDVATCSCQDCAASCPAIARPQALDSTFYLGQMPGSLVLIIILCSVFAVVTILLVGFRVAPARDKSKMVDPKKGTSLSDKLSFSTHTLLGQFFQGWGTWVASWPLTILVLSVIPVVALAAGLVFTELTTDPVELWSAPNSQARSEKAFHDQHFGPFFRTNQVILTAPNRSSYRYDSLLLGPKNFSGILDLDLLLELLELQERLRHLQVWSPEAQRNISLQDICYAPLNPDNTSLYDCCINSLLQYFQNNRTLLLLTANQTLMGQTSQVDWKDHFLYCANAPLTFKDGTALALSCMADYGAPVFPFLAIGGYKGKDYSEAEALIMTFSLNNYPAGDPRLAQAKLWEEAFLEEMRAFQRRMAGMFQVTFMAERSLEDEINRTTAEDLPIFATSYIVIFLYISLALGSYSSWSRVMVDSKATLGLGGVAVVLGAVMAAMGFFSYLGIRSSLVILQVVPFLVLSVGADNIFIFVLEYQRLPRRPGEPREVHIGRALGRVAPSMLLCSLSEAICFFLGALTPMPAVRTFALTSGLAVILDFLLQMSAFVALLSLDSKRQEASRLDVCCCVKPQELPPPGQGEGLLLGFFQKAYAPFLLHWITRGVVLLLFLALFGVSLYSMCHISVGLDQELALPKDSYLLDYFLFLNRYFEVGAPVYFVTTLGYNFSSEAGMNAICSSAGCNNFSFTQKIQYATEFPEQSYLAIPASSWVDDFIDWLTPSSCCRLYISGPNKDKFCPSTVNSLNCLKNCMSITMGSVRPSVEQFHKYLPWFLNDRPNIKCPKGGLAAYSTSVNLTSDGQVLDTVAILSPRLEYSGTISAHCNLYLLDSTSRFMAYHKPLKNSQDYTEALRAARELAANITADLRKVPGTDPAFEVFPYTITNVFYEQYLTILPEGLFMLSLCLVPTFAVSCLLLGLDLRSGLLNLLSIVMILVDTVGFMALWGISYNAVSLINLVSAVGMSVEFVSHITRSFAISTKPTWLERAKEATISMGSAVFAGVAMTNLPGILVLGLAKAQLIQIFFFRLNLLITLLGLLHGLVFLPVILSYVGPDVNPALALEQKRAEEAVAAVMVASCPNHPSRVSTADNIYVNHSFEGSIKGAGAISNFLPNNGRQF

[2] = target: T1, NPC1-like intracellular cholesterol transporter 1 (Homo sapiens); test: Inhibition of NPC1L1 in human Caco-2 cells assessed as decrease in uptake of cholesterol-d6 at 50 uM by HPLC-MS analysis; type: cell-based
[3] = target: T1, NPC1-like intracellular cholesterol transporter 1 (Homo sapiens); test: Non-competitive inhibition of NPC1L1 in human Caco-2 cells assessed as decrease in uptake of cholesterol at 50 uM by HPLC-MS based Lineweaver-Burk double reciprocal plot analysis; type: cell-based
Caco-2 [4] = test: Inhibition of PTL mRNA expression in human Caco-2 cells at 100 uM incubated for 24 hrs by qRT-PCR analysis; type: functional, cell-based
Caco-2 [5] = test: Inhibition of NPC1L1 mRNA expression in human Caco-2 cells at 100 uM incubated for 24 hrs by qRT-PCR analysis; type: functional, cell-based
Caco-2 [6] = test: Inhibition of PTL expression in human Caco-2 cells at 0.1 to 100 uM incubated for 24 hrs by Western blot analysis; type: functional, cell-based; conditions: dose 0.1-100 µM
Caco-2 [7] = test: Inhibition of NPC1L1 expression in human Caco-2 cells at 0.1 to 100 uM incubated for 24 hrs by Western blot analysis; type: functional, cell-based; conditions: dose 0.1-100 µM

Activity [1] | inhibition [2] | inhibition [3] | SMILES | inhibition (Caco-2 [4]) | inhibition (Caco-2 [5]) | inhibition (Caco-2 [6]) | inhibition (Caco-2 [7])
Active | – | – | CCCCCCCCCCC[C@@H](C[C@@H]1OC(=O)[C@H]1CCCCCC)OC(=O)c1cccc(O)c1 | – | – | – | –
Active | Active | Active | CCCCCCCCCCC[C@@H](C[C@@H]1OC(=O)[C@H]1CCCCCC)OC(=O)c1ccc(O)cc1 | Active | inactive | Active | inactive
– | Active | – | O=C1[C@H](CC[C@H](O)c2ccc(F)cc2)[C@@H](c2ccc(O)cc2)N1c1ccc(F)cc1 | Active | inactive | Active | inactive
Active | Active | – | CCCCCCCCCCC[C@@H](C[C@@H]1OC(=O)[C@H]1CCCCCC)OC(=O)[C@H](CC(C)C)NC=O | – | – | Active | inactive

Source: ChEMBL document CHEMBL4813990, “One-step modification to identify dual-inhibitors targeting both pancreatic triglyceride lipase and Niemann-Pick C1-like 1” (Eur J Med Chem, 2021)
